Reference: patent US20260376293A1, “METHODS FOR STUDYING GPR158 PHARMACOLOGY AND IDENTIFICATION OF ITS LIGANDS” (UNIVERSITY OF FLORIDA RESEARCH FOUNDATION, INCORPORATED, priority 2022, published 2026)
“And” between values parts separate entries of the source, which are not always exact repeats. Equal values may be shown once.

Molecular target: T1, GPR158-RGS7/Gβ5 complex (Homo sapiens, UniProt Q5T848)
T1 construct: substituting amino acids to alanine in full-length GPR158; expressed in transfected cells; host or cells: HEK293FT
T1 sequence (Q5T848 24-1215): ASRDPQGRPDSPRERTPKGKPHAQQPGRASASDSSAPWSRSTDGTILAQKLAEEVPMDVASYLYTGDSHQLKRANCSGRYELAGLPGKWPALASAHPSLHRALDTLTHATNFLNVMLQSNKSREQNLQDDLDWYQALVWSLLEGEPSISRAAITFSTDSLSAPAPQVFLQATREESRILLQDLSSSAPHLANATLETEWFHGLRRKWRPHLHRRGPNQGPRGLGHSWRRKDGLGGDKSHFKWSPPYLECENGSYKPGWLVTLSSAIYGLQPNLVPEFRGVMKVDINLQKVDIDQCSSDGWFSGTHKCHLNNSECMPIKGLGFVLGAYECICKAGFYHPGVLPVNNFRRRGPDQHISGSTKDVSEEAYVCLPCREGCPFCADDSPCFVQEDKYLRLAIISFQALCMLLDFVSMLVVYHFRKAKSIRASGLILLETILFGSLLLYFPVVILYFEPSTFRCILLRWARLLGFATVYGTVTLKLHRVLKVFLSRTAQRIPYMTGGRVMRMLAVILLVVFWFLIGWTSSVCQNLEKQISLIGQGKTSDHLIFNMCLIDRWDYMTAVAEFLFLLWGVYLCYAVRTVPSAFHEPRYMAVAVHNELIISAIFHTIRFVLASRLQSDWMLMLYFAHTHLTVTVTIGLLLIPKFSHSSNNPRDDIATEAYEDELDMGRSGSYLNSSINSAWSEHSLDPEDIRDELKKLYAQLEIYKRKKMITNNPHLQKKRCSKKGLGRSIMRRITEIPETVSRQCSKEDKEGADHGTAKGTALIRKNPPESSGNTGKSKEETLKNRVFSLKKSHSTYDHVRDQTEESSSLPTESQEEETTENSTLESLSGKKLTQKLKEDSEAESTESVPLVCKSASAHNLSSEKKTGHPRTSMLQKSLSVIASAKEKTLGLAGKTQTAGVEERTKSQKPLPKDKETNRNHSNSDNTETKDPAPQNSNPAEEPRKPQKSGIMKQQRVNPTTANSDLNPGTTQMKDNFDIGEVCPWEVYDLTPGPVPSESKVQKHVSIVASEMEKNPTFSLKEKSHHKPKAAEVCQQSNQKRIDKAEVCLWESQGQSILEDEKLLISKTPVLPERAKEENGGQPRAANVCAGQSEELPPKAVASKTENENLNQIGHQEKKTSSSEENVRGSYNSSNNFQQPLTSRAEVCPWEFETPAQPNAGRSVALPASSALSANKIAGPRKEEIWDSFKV
T1 sequence (P49802 1-495 partner): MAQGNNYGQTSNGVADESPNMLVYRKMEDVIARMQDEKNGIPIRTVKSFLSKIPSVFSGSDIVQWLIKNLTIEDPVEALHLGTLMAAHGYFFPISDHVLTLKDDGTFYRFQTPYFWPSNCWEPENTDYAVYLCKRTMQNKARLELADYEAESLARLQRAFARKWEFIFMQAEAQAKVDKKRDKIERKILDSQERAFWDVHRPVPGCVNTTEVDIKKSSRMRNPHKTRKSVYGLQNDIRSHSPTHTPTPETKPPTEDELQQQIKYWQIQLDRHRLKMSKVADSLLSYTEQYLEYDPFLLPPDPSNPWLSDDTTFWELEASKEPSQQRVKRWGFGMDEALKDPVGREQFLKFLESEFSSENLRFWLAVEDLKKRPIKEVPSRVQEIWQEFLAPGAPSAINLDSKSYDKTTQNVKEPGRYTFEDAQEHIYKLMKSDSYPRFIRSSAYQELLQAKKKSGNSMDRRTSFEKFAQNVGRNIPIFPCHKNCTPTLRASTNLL
T1 sequence (O14775 1-395 partner): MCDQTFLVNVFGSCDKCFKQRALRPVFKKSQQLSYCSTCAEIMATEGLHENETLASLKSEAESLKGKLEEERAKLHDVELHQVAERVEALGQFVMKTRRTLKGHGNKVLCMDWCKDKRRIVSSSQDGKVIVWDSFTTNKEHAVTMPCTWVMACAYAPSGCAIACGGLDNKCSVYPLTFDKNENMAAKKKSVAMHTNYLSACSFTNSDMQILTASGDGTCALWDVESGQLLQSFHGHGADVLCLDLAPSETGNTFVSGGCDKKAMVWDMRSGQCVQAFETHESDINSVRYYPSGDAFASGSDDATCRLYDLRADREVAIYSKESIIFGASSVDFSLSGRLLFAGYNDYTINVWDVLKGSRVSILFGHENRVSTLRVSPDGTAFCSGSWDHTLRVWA
Assay: BRET GAP assay, Gαo deactivation (KGAP)
Format: cell-based
Details: for IC50: GPR158/RGS7/Gβ5, Gαo, D2R, n=4 in triplicate, mean±s.e.m., read-out: IC50 (change in GAP activity, KGAP)
Experimental: FIGS. 3A-3D. Effect of taurine on Gαo deactivation mediated by GPR158-RGS7/Gβ5 complex. A and B) Representative traces of BRET signal showing Gαo activation mediated by D2R upon application of dopamine (100 μM) at t=0 s and Gαo deactivation triggered by injection of haloperidol (100 μM) at t=15 s (arrow). Time courses were examined without or with taurine (100 μM) incubation in mock transfected cells or cells transfected with GPR158. C) Quantification of deactivation time constant of the reactions presented in 3A and 3B. 1/τ is calculated from deactivation curves of 5 independent experiments each performed in triplicate for each transfection condition. Data shown represent mean±s.e.m. ****p<0.0001, ns=p>0.05 (two-way ANOVA). Columns with no fill (Mock), columns with dotted fill (Taurine) D) Dose response profile of changes in GAP activity (KGAP) calculated by subtracting the baseline deactivation rate (1/τ) from the rate of the reaction in the presence of the GPR158/RGS7/Gβ5. […] Data shown represent mean±s.e.m of 4 independent experiments each conduced in triplicate.
FIGS. 4A-4E. Glycine slows deactivation of Gαo by GPR158-RGS7/Gβ5 complex A) Schematics of the BRET-based GAP assay. G proteins are activated at t=0 s by stimulating GPCR (D2R, 0.1 mM). After reaching steady state the GPCR activity is terminated by injection of haloperidol (0.1 mM) at t=15 s (arrow). G protein deactivation is then monitored by dissociation of the Venus-Gβγ from masGRK3ct-Nluc reporter which occurs upon GTP hydrolysis by Gαo quenching the BRET signal. B and C) Representative traces of BRET signal showing Gαo activation and deactivation time course with or without glycine (100 μM) treatment in cells without GPR158 (b) or cells transfected with GPR158 (c). D) Quantification of deactivation time constant of the reactions presented in panels b and c. 1/τ is calculated from deactivation curves of n=5 independent experiments in triplicate from each cell transfection group. Data shown represent mean±s.e.m. ****p<0.0001, ns, p>0.05 (two-way ANOVA). Columns with no fill (Mock), columns with dotted fill (Glycine), columns with angled-line fill (Taurine) E) Dose response profile of changes in GAP activity (KGAP) calculated by subtracting the baseline deactivation rate (1/τ) from the rate of the reaction in the presence of the GPR158/RGS7/Gβ5. […] Data shown represent mean±s.e.m of n=4 independent experiments each conduced in triplicate.
To understand how glycine action on GPR158 regulates intracellular cAMP the inventors focused on GPR158 interaction with RGS7/Gβ5, an established GTPase Activating Protein (GAP) for the Gαi/o proteins (38) known to regulate cAMP production (39). The inventors used a well-established cell-based assay to monitor GAP activity by following kinetics of G protein deactivation (40) (FIG. 4A). In this assay, activation of G proteins by GDP/GTP exchange in response to GPCR stimulation generates the BRET signal upon interaction of liberated Venus-Gβγ subunits with the masGRK3CT-Nluc reporter.
Cellular measurements of BRET between Venus-Gβ1γ2 and masGRK3ct-Nluc were performed to examine GAP activity of RGS protein in living cells (described in detail in Masuho et al., 2015 (40)). Cells were co-transfected with the pcDNA3.1(+) plasmid coding for dopamine D2 receptor (1), GαoA (2), masGRK3ct-Nluc (1), Venus-156-239-Gβ1 (1), Venus-1-155-Gγ2 (1), and when indicated with RGS7/Gβ5 (2), GPR158 (1) (in parenthesis the ratio of transfected DNA). […]

| IC50 | potency of taurine as compared to glycine (GAP assay IC50 comparison) | Compound | effect on Gαo deactivation (GPR158 co-expressed with RGS7/Gβ5, 100 μM) | effect on Gαo deactivation without GPR158 (baseline or RGS7/Gβ5 without GPR158, glycine 100 μM) |
| --- | --- | --- | --- | --- |
| ~3 µM and 2.93 µM |  | NCC(=O)O [glycine] | significantly decelerated Gαo deactivation | no effect on either baseline Gαo deactivation or RGS7/Gβ5-assisted process |
| ~6 µM and 5.89 µM | approximately two-fold lower potency | NCCS(=O)(=O)O [taurine, 2-aminoethanesulfonic acid] |  |  |
